Measured values taken from patent US20050004024A1, “Methods of treating Pin1 associated disorders by covalent modification of active site residues” (PINTEX PHARMACEUTICALS, INC., priority 2003, published 2005).

Biological target: Pin1 (Homo sapiens, UniProt Q13526)
Assay: Time dependent inactivation of Pin1 (pre-incubation, then protease coupled Pin1 assay)
Format: biochemical
Conditions: 7.4 uM Pin1 incubated with 200 uM compound, 1% DMF, 35 mM hepes pH 7.8; aliquots diluted to 1 nM Pin1; FIG. 2
Description: Pin1 was incubated with Fred-A to determine the effect on peptidyl prolyl isomerase activity.
(§1) A solution containing 7.4 uM Pin1, 100 uM juglone 1% DMF, in 35 mM hepes pH 7.8 was incubated. At various time points, aliquots were removed and diluted into assay buffer containing 1 nM Pin1, 13.5 nM juglone, 0.1 mg/ml BSA, 0.2 mM DTT, and 35 mM Hepes pH 7.8. Pin1 activity was measured by using a protease coupled Pin1 assay.
Aliquots of the incubation mixtures were diluted 7,200 fold into assay buffer (0.1 mg/mL BSA, 0.2 mM DTT and 35 mM Hepes pH 7.8) to a final Pin1 concentration of 1 nM. 20 uL of a 0.4 mg/mL trypsin solution in 35 mM Hepes pH 7.8 was added to 1.2 mL Pin1 solution. The enzymatic reaction was initiated by the addition of 3 uL the substrate solution (15/mg/mL of Ac-Ala-Ala-(PO3)Ser-Pro-Arg-pNA dissolved in a solution of 0.5 M LiCl in trifluroethanol). The reaction progress was monitored at 390 nm for 8 minutes at 4° C.
as §1, with “200” for “100”, “27” for “13.5”, “as described above for juglone.” for “by using a protease coupled Pin1 assay.”

Chain of Pin1 (Q13526 whole entry): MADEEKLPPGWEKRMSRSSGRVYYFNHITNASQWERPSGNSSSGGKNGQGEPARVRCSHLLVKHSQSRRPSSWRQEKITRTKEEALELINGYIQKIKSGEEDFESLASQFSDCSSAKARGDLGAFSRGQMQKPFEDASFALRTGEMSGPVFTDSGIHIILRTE

Substance: Fredericamycin A [Fred-A]
- effect on peptidyl prolyl isomerase activity / covalent modification of Pin1: modified in a manner consistent with covalent modification of the active site
